Assay results: ChEMBL document CHEMBL5143682, “Design and synthesis of cinnamic acid triptolide ester derivatives as potent antitumor agents and their biological evaluation” (Bioorg Med Chem Lett, 2022)

The molecules below were run on HepG2 (assay: Antiproliferative activity against human HepG2 cells assessed as reduction in cell viability measured after 48 hrs by CCK-8 assay). Details: HepG2, 48 h.
Format: functional, cell-based

COc1cc(/C=C/C(=O)O[C@@H]2[C@@]3(C(C)C)O[C@H]3[C@@H]3O[C@]34[C@]23O[C@H]3C[C@H]2C3=C(CC[C@@]24C)C(=O)OC3)cc([N+](=O)[O-])c1OC and COc1cc(/C=C/C(=O)O[C@@H]2[C@@]3(C(C)C)O[C@H]3[C@@H]3O[C@]34[C@]23O[C@H]3C[C@H]2C3=C(CC[C@@]24C)C(=O)OC3)cc(OC)c1OC are within 1.5-fold of each other in IC50: 663 nM for the first, 689 nM for the second.

Going from CCc1ccc(/C=C/C(=O)O[C@@H]2[C@@]3(C(C)C)O[C@H]3[C@@H]3O[C@]34[C@]23O[C@H]3C[C@H]2C3=C(CC[C@@]24C)C(=O)OC3)cc1 to CC(C)[C@]12O[C@H]1[C@@H]1O[C@]13[C@]1(O[C@H]1C[C@H]1C4=C(CC[C@@]13C)C(=O)OC4)[C@@H]2OC(=O)/C=C/c1ccc(Br)cc1, the IC50 rises from 454 nM to 838 nM (1.8-fold). The first is the more potent here.

First: CC(C)[C@]12O[C@H]1[C@@H]1O[C@]13[C@]1(O[C@H]1C[C@H]1C4=C(CC[C@@]13C)C(=O)OC4)[C@@H]2OC(=O)/C=C/c1ccc(C(F)(F)F)cc1
Second: CC(C)[C@]12O[C@H]1[C@@H]1O[C@]13[C@]1(O[C@H]1C[C@H]1C4=C(CC[C@@]13C)C(=O)OC4)[C@@H]2OC(=O)/C=C/c1ccc(F)cc1
The IC50 of the first is 2-fold higher: 899 nM for the first, 439 nM for the second. The second is the more potent here.

COc1cc(CCC(=O)O[C@@H]2[C@@]3(C(C)C)O[C@H]3[C@@H]3O[C@]34[C@]23O[C@H]3C[C@H]2C3=C(CC[C@@]24C)C(=O)OC3)ccc1O and CC(C)[C@]12O[C@H]1[C@@H]1O[C@]13[C@]1(O[C@H]1C[C@H]1C4=C(CC[C@@]13C)C(=O)OC4)[C@@H]2OC(=O)CCc1cccnc1 are within 1.5-fold of each other in IC50: 818 nM for the first, 839 nM for the second.

CC(C)[C@]12O[C@H]1[C@@H]1O[C@]13[C@]1(O[C@H]1C[C@H]1C4=C(CC[C@@]13C)C(=O)OC4)[C@@H]2OC(=O)/C=C/c1ccc([N+](=O)[O-])cc1 and CC(C)[C@]12O[C@H]1[C@@H]1O[C@]13[C@]1(O[C@H]1C[C@H]1C4=C(CC[C@@]13C)C(=O)OC4)[C@@H]2OC(=O)/C=C/c1ccc(C#N)cc1 are within 1.5-fold of each other in IC50: 695 nM for the first, 591 nM for the second.

CC(C)[C@]12O[C@H]1[C@@H]1O[C@]13[C@]1(O[C@H]1C[C@H]1C4=C(CC[C@@]13C)C(=O)OC4)[C@@H]2OC(=O)/C=C/c1ccc(N2CCCCC2)cc1 and CC(C)[C@]12O[C@H]1[C@@H]1O[C@]13[C@]1(O[C@H]1C[C@H]1C4=C(CC[C@@]13C)C(=O)OC4)[C@@H]2OC(=O)/C=C/c1ccc(N2CCOCC2)cc1 are within 1.5-fold of each other in IC50: 620 nM for the first, 783 nM for the second.

COc1ccc(/C=C/C(=O)O[C@@H]2[C@@]3(C(C)C)O[C@H]3[C@@H]3O[C@]34[C@]23O[C@H]3C[C@H]2C3=C(CC[C@@]24C)C(=O)OC3)cc1 and CC(C)[C@]12O[C@H]1[C@@H]1O[C@]13[C@]1(O[C@H]1C[C@H]1C4=C(CC[C@@]13C)C(=O)OC4)[C@@H]2OC(=O)/C=C/c1ccc(N(C)C)cc1 are within 1.5-fold of each other in IC50: 654 nM for the first, 696 nM for the second.

First: CC(C)[C@]12O[C@H]1[C@@H]1O[C@]13[C@]1(O[C@H]1C[C@H]1C4=C(CC[C@@]13C)C(=O)OC4)[C@@H]2OC(=O)/C=C/c1ccccc1N1CCCCC1
Second: CC(C)[C@]12O[C@H]1[C@@H]1O[C@]13[C@]1(O[C@H]1C[C@H]1C4=C(CC[C@@]13C)C(=O)OC4)[C@@H]2OC(=O)/C=C/c1ccccc1F
The IC50 of the first is 4.5-fold higher: 1720 nM for the first, 381 nM for the second.

COc1cc(/C=C/C(=O)O[C@@H]2[C@@]3(C(C)C)O[C@H]3[C@@H]3O[C@]34[C@]23O[C@H]3C[C@H]2C3=C(CC[C@@]24C)C(=O)OC3)ccc1OCc1ccccc1 and COc1ccc(/C=C/C(=O)O[C@@H]2[C@@]3(C(C)C)O[C@H]3[C@@H]3O[C@]34[C@]23O[C@H]3C[C@H]2C3=C(CC[C@@]24C)C(=O)OC3)cc1OC are within 1.5-fold of each other in IC50: 1020 nM for the first, 686 nM for the second.

CC(C)[C@]12O[C@H]1[C@@H]1O[C@]13[C@]1(O[C@H]1C[C@H]1C4=C(CC[C@@]13C)C(=O)OC4)[C@@H]2OC(=O)/C=C/c1cccnc1 and CC(C)[C@]12O[C@H]1[C@@H]1O[C@]13[C@]1(O[C@H]1C[C@H]1C4=C(CC[C@@]13C)C(=O)OC4)[C@@H]2OC(=O)/C=C/c1ccccc1 are within 1.5-fold of each other in IC50: 538 nM for the first, 413 nM for the second.

CC(C)[C@]12O[C@H]1[C@@H]1O[C@]13[C@]1(O[C@H]1C[C@H]1C4=C(CC[C@@]13C)C(=O)OC4)[C@@H]2OC(=O)/C=C/c1cc(Br)ccc1F and CC(C)[C@]12O[C@H]1[C@@H]1O[C@]13[C@]1(O[C@H]1C[C@H]1C4=C(CC[C@@]13C)C(=O)OC4)[C@@H]2OC(=O)/C=C/c1ccc(S(C)(=O)=O)cc1 are within 1.5-fold of each other in IC50: 591 nM for the first, 564 nM for the second.

First: CCOP(=O)(OCC)Oc1ccc(/C=C/C(=O)O[C@@H]2[C@@]3(C(C)C)O[C@H]3[C@@H]3O[C@]34[C@]23O[C@H]3C[C@H]2C3=C(CC[C@@]24C)C(=O)OC3)cc1
Second: CCOP(=O)(OCC)Oc1ccc(/C=C/C(=O)O[C@@H]2[C@@]3(C(C)C)O[C@H]3[C@@H]3O[C@]34[C@]23O[C@H]3C[C@H]2C3=C(CC[C@@]24C)C(=O)OC3)cc1OC
The IC50 of the first is 1.6-fold higher: 578 nM for the first, 355 nM for the second.

For CC(C)[C@]12O[C@H]1[C@@H]1O[C@]13[C@]1(O[C@H]1C[C@H]1C4=C(CC[C@@]13C)C(=O)OC4)[C@@H]2O [TRIPTOLIDE], the IC50 was 468 nM.
